# Experimental data reported in patent publication US11357778B2, “Antagonist of the fibroblast growth factor receptor 3 (FGFR3) for use in the treatment or the prevention of skeletal disorders linked with abnormal activation of FGFR3” (INSTITUT NATIONAL DE LA SANTE ET DE LE RECHERCHE MEDICALE …, priority 2011, dated 2022).
# Key:
# WT femurs = test: Ex vivo culture of E16.5 embryonic femur explants, bone length, wild type; assay type: cell-based, mouse; conditions: A31 2 mM, 5 days of culture
# Protocol: (§1) Six sets of ex vivo experiments were performed. Femur embryos at day E16.5 from WT (n=6) and Fgfr3^Y367C/+ (n=6) mice were used and incubated for 5 days in DMEM medium with antibiotics and 0.2% BSA (Sigma) supplemented with A31 or PD173074 (as control) at a concentration of 2 mM. Right femur was cultured in supplemented medium and compared with the left one cultured in control medium. Rib cage from E16.5 WT and Fgfr3^Y367C/+ mice embryos were isolated and stripped of all soft tissues. Primary chondrocytes were obtained from rib cages. The ribs were incubated in a pronase solution (Roche; 2 mg/ml) followed by a digestion in Collagenase A (Roche; 3 mg/ml) at 37° C. Isolated chondrocytes were plated out at a density of 2.105 cells in 6-well plates containing DMEM supplemented with 10% FCS and antibiotics, and were allowed to reach subconfluency. Cultures were supplemented with A31 or PD173074 (as control) at a concentration of 2 mM. […] To establish the effect of the inhibitors, the right femur was cultured in supplemented medium and compared with the left one cultured in control medium The bone length was measured at the beginning (before treatment) and at the end of time course. […] The genotype of WT, Fgfr3^Y367C/+ and Fgfr3^−/− mice were determined by PCR of tail DNA as previously described (Pannier et al., Biochim Biophys Acta, 1792: 140-147, 2009). […]
# cyclin D1 = test: Cyclin D1 immunoblot in costal primary chondrocytes from E16.5 ribs; assay type: cell-based, mouse; conditions: A31-treated murine chondrocytes vs untreated
# Protocol: as §1, with “C.” for “C. Isolated chondrocytes were plated out at a density of 2.105 cells in 6-well plates containing DMEM supplemented with 10% FCS and antibiotics, and were allowed to reach subconfluency. Cultures were supplemented with A31 or PD173074 (as control) at a concentration of 2 mM.”
# Immunoprecipitation were performed by incubating […] rabbit anti-FGFR3 (Sigma)/[…] protein with protein A-agarose (Roche). […] Bound proteins were detected by chemiluminescence (ECL, Amersham). The blots were rehybrididized with an antipan-actin antibody for quantification (Millipore). […]
compound,measurement,setting,value
COc1cc(OC)cc(-c2cc3cnc(NCc4cn(CC5CCCN(C)C5)nn4)nc3nc2NC(=O)NC(C)(C)C)c1 (centres unmarked) [Compound A31],longitudinal bone growth (gain in femur length),WT femurs,1863±255 μm
same,cyclin D1 level (Western blot),cyclin D1,reduced level of cyclin D1
